US6994981B2, “Modulators of paraptosis and related methods” (The Buck Institute, priority 2002, dated 2006)
“Also recorded” adds a separate entry of the source.

Legend:
[1] = test system: 293T human embryonic kidney cells; assay: SP toxicity to untransfected 293T cells; type: cell-based; conditions: no endogenous NK1R, up to millimolar SP
Protocol: (§1) Human embryonic kidney 293T cells were grown as described in Example I. Transient transfection was performed using Superfect (Qiagen) as described by the manufacturer. Briefly, 2×10^5 cells/well were seeded into 35 mm wells 16 hr prior to transfection. Superfect:DNA complexes were added at a 5 μl:2 μg ratio for 3 hr; then the medium was replaced and after 24 hr SP was added. At 24–48 hr after addition of SP cell death was quantified as follows: the media containing floating cells were collected and centrifuged 10 min at 2000×g, the pellet was resuspended in PBS/trypan blue and the cells were counted using a hematocytometer. When other compounds were used, they were added at the same time as SP: zVAD.fmk or BAF was added at 50 μM and obtained from Enzyme System Products, Livermore, Calif.

[2] = test system: 293T cells transfected with NK1R; assay: SP-induced, NK1R-mediated cell death in 293T cells transfected with NK1R, trypan blue and staining; type: cell-based, human
Protocol: as §1
Briefly, the method entailed cloning the full-length (1.2 kb) NK1R cDNA (Genbank Accession No. M31477) by RT-PCR from adult rat hippocampal RNA into the XbaI/EcoRI sites of the vector pcDNA3.1 (Invitrogen), using the following oligonucleotides: forward 5′[…] 3′ (SEQ ID NO:2); reverse 5′[…] 3′ (SEQ ID NO:3).
Cells were stained according to the manufacturer's instructions (Clontech). Briefly, cellswere washed with binding buffer and incubated with FITC-Annexin-V or EGFPAnnexin-V for 5–10 min and fixed with 4% paraformaldehyde.
Cells were fixed 10 min with 4% paraformaldehyde and stained according to the manufacturer's instructions (Promega).
The protein kinase inhibitors were added 30 min before SP exposure at the following concentrations: 10 μM Rp-8-Br-cAMPS (adenosin 3′,5′-cyclic monophosphorothioate, 8-bromo-, Rp-isomer, sodium salt) which is a PKA inhibitor; 50 nM Calphostin C, which is a PKC inhibitor; 10 μM PD 98059 which is a MAPKK (MEK) inhibitor. These compounds were obtained from Calbiochem. Viability was quantified by trypan blue staining of the total cell population.

cytoplasmic calcium = assay: Imaging of cytoplasmic calcium in single striatal cells; type: cell-based
Protocol: Single-cell imaging was performed in a Merlin imaging facility (Olympus America, USA) using an Olympus IX70 inverted epifluorescence microscope equipped with a 40× oil immersion objective and a Spectramaster monochromator (Life Science Resources, Cambridge, UK) (excitation, 340 and 380 nm; emission >505 nm). Cells were loaded with 3 μM Fura-2 AM (from TEF LABS, Texas, USA) for 30 min in incubation medium containing (in mM): 120 NaCl, 3.5 KCl, 1.3 CaCl2, 0.4 KH2PO4, 20 TES buffer, 5 NaHCO3, 1.2 Na2SO4, 15 Glucose, 1.2 MgCl2, pH adjusted to 7.4 with NaOH. 30 μg/ml bovine serum albumin was also added. Experiments were performed in a non-perfusing thermostatted chamber (37° C.) with incubation medium without bovine serum albumin (Castilho et al., J. Neurosci. 18:10277–10286 (1998)).

fibroblasts = assay: SP toxicity to fibroblasts; type: cell-based; conditions: extracellular SP
[3] = test system: caspases, calpains, proteasome; assay: Protease activation during SP-induced cell death, substrate hydrolysis in cytosolic extracts of NK1R-transfected 293T cells; type: biochemical, human
Protocol: Preparation of cell-free extract for kinetic studies: 293T cells seeded at the density of 2 million cells per 10 cm dish were transfected with NK1R cDNA using Lipofectamine 2000 (Gibco) according the instructions provided by the manufacturer. After 24 hr 10 nM SP was added to half of the culture dishes. At 24 hr later the cells were washed with ice cold PBS and collected with a cell scraper. The cells pelleted at 700×g for 4 min were resuspended in cell lysis buffer at pH 7.4 containing 1 mM dithiothreitol at a ratio of 1:1 (v/v). After 30 min on ice the swelled cells were disrupted with 20 strokes using a 27 gauge needle and further spun at 16,000×g for 30 min. The pellet was discarded and the supernatant which represents the cytosolic fraction was aliquoted and stored at −80° C. or used in the kinetic studies. The protein concentration was determined using the Bradford assay (Pierce).
For kinetic studies, the proteolytic activities were followed fluorometrically by monitoring AFC or AMC release from 100 μM of the corresponding substrates (Enzyme Systems Products): Caspase-1 like, Ac-YVAD-AFC; caspase-2, Ac-VDVAD-AFC; caspases-3 like, Ac-DEVD-AFC; caspase-6, Ac-VEID-AFC; caspase-8, Ac-IETD-AFC; caspase-9, Ac-LEHD-AFC. Calpain activity was monitored with 100 μM Suc-LY-AFC (succinyl-Leu-Tyr-7-amino-4-methylcoumarin, Enzyme Systems Products) at 5 μM and 5 mM CaCl2. The chymotrypsin activity of the proteasome was followed with 100 μM Suc-LLVY-AFC (succinyl-Leu-Leu-Val-Tyr-7-amino-4-methylcoumarin, Enzyme Systems Products), and cathepsins were assayed using 20 μM Z-FR-AMC (Benzyloxycarbonyl-Phe-Arg-7-amino-4-methylcoumarin, Bachem). A 10 μl aliquot of extract in the presence or absence of SP was added to 90 μl of substrate at the appropriate concentration and pH. The reaction was continuously monitored during 30 min and 37° C. in a fluorescence microplate reader (Molecular Devices). The instrument was set at excitation and emission wavelengths of 405 and 510 for AFC releasing group, and 370 and 460 nm, for AMC releasing group, respectively. The steady-state hydrolysis rates were obtained from the linear part of the curves.

Q: What does the source list for “SP: eleven amino acid neurotransmitter of the tachykinin family, ligand of NK1R”?
A: sensitivity of 293T cells to SP-induced cell death [1]: resistant; sensitivity of NK1R-transfected 293T cells to SP [2]: sensitive to SP at nanomolar concentrations; change in cytoplasmic calcium (cytoplasmic calcium): did not induce a detectable change; toxicity to fibroblasts (fibroblasts): resistant to micromolar concentrations; also recorded: not toxic; activation of calpains and chymotrypsin-like activity of the proteasome [3]: no significant effect on the rates of substrate hydrolysis; hydrolysis of substrates for initiator and executioner caspases ([3]; 10 nM SP, 24 hr): no hydrolysis of substrates; DEVDase activity in response to SP stimulation ([3]; extracts with granzyme B added): no significant difference
